Literature values, collected in US20130146496A1, “SOLID PHARMACEUTICAL FORMULATIONS OF RAMIPRIL AND AMLODIPINE BESYLATE, AND THEIR PREPARATION” (priority 2010, published 2013).

What was measured:
[1] = in vivo

In the case of CCOC(=O)C1=C(COCCN)NC(C)=C(C(=O)OC)C1c1ccccc1Cl (racemic) [Amlodipine besylate, 3-ethyl-5-methyl-(+-)-2-[(2-aminoethoxy)methyl]-4-(2-chlorophenyl)-1,4-dihydro-6-methylpyridine-3,5-dicarboxylate], the solubility in water is given as “slightly soluble” and the absolute bioavailability [1] is given as 64-90%.
